In BindingDB's records for patent US20240150287 (Hangzhou Apeloa Medicine Research Institute Co., 2024):
Where “and” joins values, the source holds several entries; their conditions need not be identical. Equal entries are not always repeated.

Molecular target: T1, Mucosal addressin cell adhesion molecule 1/Integrin alpha-4/beta-7 (Homo sapiens, UniProt P13612+P26010+Q13477)
T1 sequence (P13612 whole entry): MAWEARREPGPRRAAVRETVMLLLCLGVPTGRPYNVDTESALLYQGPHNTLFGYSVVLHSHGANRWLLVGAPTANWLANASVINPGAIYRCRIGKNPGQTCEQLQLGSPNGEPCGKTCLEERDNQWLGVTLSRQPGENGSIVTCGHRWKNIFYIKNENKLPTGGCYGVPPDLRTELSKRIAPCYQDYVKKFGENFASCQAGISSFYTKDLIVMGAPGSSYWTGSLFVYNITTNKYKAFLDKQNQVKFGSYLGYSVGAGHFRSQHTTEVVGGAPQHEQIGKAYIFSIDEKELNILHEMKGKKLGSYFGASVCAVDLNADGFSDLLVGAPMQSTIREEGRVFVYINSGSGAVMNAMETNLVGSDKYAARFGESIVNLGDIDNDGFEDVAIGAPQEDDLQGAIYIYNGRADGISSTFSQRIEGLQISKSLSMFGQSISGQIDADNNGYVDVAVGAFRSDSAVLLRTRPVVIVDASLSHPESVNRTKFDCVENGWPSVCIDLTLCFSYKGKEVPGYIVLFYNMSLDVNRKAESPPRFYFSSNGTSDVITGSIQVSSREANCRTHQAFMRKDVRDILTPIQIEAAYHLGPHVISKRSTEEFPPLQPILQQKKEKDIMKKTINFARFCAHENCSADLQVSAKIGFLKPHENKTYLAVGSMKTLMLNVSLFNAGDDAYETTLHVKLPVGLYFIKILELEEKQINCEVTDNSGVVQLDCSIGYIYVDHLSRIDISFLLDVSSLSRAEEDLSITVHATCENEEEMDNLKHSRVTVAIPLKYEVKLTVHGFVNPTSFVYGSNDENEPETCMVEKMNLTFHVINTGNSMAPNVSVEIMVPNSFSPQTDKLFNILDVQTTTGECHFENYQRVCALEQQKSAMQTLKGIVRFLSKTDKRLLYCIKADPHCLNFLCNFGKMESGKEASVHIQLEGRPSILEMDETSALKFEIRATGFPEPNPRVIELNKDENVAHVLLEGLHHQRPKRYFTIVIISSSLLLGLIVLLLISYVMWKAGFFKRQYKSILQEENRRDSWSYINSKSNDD
T1 sequence (P26010 whole entry): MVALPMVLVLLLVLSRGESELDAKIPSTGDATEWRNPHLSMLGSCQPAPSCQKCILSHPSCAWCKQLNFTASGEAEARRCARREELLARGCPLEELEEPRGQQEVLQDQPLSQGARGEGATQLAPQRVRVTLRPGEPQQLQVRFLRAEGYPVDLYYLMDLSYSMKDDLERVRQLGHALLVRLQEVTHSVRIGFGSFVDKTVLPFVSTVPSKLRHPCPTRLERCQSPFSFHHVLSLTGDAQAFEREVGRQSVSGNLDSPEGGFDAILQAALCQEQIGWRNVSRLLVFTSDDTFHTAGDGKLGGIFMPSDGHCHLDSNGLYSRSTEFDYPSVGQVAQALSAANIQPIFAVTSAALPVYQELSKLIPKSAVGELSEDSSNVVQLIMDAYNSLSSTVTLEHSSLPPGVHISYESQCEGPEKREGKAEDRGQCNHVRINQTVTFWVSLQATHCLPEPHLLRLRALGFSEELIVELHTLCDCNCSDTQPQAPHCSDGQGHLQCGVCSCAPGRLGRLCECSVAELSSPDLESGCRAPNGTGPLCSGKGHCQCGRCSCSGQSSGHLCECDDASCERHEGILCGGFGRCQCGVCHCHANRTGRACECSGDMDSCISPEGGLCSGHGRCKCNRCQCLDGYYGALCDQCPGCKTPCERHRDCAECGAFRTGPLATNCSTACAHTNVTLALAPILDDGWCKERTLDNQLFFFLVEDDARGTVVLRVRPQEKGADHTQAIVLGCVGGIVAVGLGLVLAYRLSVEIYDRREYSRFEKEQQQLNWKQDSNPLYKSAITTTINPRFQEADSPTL
T1 sequence (Q13477 whole entry): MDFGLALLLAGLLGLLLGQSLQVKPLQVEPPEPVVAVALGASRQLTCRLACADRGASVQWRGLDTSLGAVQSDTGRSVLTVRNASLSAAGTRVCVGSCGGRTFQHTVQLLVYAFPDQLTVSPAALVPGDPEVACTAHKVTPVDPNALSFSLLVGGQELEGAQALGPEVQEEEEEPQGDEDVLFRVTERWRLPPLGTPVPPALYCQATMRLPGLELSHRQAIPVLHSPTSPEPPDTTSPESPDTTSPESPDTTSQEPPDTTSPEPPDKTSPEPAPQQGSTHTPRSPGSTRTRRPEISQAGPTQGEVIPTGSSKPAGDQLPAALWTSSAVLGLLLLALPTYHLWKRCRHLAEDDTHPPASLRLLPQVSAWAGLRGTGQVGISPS
Test: BINDING INHIBITION ACTIVITY EVALUATION TEST
Description: Coat the 96-well microplate (Costar) with 50 μL of recombinant human MAdCAM-1 (R&D Systems) solution per well, and incubate overnight (12-18 hours) at 4° C. Wash three times with 150 μL of TBS buffer per well. Block plate with 150 μL per well with blocking buffer for 1 h at 37° C. Wash three times with 150 μL of TBS buffer per well. Dilute the recombinant human integrin α4β7 (R&D Systems) with TBS buffer containing 0.1% bovine serum albumin (BSA), then add to the 96 well plate with 50 μL per well. Add 1 μL of test compound or DMSO, cover, incubate at room temperature for 2 h, wash three times with 150 μL of TBS buffer per well. Dilute the anti-β7 antibody (R&D Systems) with 0.1% BSA TBS buffer, then add to the 96 well plate with 50 μL per well, cover, incubate at room temperature for 1 h, wash three times with 150 μL of TBS buffer per well. Add 50 μL of streptavidin-HRP (R&D Systems) per well, incubate at room temperature for 20 min, wash three times with 150 μL of TBS buffer per well. Add 50 μL of TMB substrate solution (Sigma) per well, incubate at room temperature for 5-30 min, and add 25 μL of stop solution per well to stop the reaction. Finally, measure absorbance at 450 nm with microplate reader (SpectraMax 340PC. Molecular Devices). Repeat the test to find the binding rate […] at each concentration when the absorbance of the well without the test substance is used as 100%, and calculate the concentration IC50 that causes 50% binding inhibition.

Row | SMILES | IC50
1 | COC(=O)[C@H](Cc1ccc(-n2c(=O)n(C3CC3)c3ccc(Cl)cc32)cc1)NC(c1ccccc1)(c1ccccc1)c1ccccc1 [US20240150287, Example 24] | 5.67 nM
2 | COC(=O)[C@H](Cc1ccc(-n2c(=O)n(C)c3cc(N(C)C)ccc32)cc1)NC(c1ccccc1)(c1ccccc1)c1ccccc1 [US20240150287, Example 37] | 5.09 nM
3 | COC(=O)[C@H](Cc1ccc(-n2c(=O)n(C)c3cccc(Cl)c32)cc1)NC(=O)c1c(Cl)cc(N2CCOCC2)cc1Cl [US20240150287, Example 39] | 3.65 nM
4 | COC(=O)[C@H](Cc1ccc(-n2c(=S)n(C)c3cccc(Cl)c32)cc1)NC(c1ccccc1)(c1ccccc1)c1ccccc1 [US20240150287, Example 26] | 160 nM
5 | COC(=O)[C@H](Cc1ccc(-n2c(=O)n(C3CCN(C)CC3)c3cccc(Cl)c32)cc1)NC(c1ccccc1)(c1ccccc1)c1ccccc1 [US20240150287, Example 29] | 18.1 nM
6 | COC(=O)[C@H](Cc1ccc(-n2c(=O)n(C3CC3)c3cccc(F)c32)cc1)NC(c1ccccc1)(c1ccccc1)c1ccccc1 [US20240150287, Example 27] | 8.81 nM
7 | COC(=O)[C@H](Cc1ccc(N2C(=O)C(C)(C)c3cccc(Cl)c32)cc1)NC(c1ccccc1)(c1ccccc1)c1ccccc1 [US20240150287, Example 10] | 38.8 nM
8 | COC(=O)[C@H](Cc1ccc(-n2c(=O)n(C)c3ccc(N(C)C)cc32)cc1)NC(c1ccccc1)(c1ccccc1)c1ccccc1 [US20240150287, Example 36] | 1.51 nM
9 | COC(=O)[C@H](Cc1ccc(N2C(=O)C3(CC3)c3cccc(Cl)c32)cc1)NC(=O)c1c(Cl)cc(N2CC3CC2CO3)cc1Cl (stereo partly specified) [US20240150287, Example 20] | 4.15 nM
10 | COC(=O)[C@H](Cc1ccc(-n2c(=O)n(C)c3cccc(Cl)c32)cc1)NC(c1ccccc1)(c1ccccc1)c1ccccc1 [US20240150287, Example 22] | 1.19 nM
11 | COC(=O)[C@H](Cc1ccc(-n2c(=O)n(C)c3cc(Cl)c(Cl)cc32)cc1)NC(c1ccccc1)(c1ccccc1)c1ccccc1 [US20240150287, Example 32] | 4.19 nM
12 | COC(=O)[C@H](Cc1ccc(-n2c(=O)n(C)c3cc(F)cc(F)c32)cc1)NC(c1ccccc1)(c1ccccc1)c1ccccc1 [US20240150287, Example 31] | 5.34 nM
13 | COC(=O)[C@H](Cc1ccc(-n2c(=O)n(C)c3cccc(OC)c32)cc1)NC(c1ccccc1)(c1ccccc1)c1ccccc1 [US20240150287, Example 35] | 0.45 nM
14 | COC(=O)[C@H](Cc1ccc(-n2c(=O)n(C3CC3)c3cccc(Cl)c32)cc1)NC(c1ccccc1)(c1ccccc1)c1ccccc1 [US20240150287, Example 25] | 7.5 nM
15 | COC(=O)[C@H](Cc1ccc(N2C(=O)C3(CC3)c3cccc(Cl)c32)cc1)NC(=O)c1c(Cl)cc(N2CCOCC2)cc1Cl [US20240150287, Example 19] | 11.4 nM
16 | COC(=O)[C@H](Cc1ccc(-n2c(=O)n(C3CC3)c3cc(Cl)ccc32)cc1)NC(c1ccccc1)(c1ccccc1)c1ccccc1 [US20240150287, Example 23] | 143 nM
17 | COC(=O)[C@H](Cc1ccc(-n2c(=O)n(C)c3ccc(F)c(F)c32)cc1)NC(c1ccccc1)(c1ccccc1)c1ccccc1 [US20240150287, Example 33] | 2.7 nM
18 | COC(=O)[C@H](Cc1ccc(N2C(=O)C3(CC3)c3cccc(Cl)c32)cc1)NC(=O)c1c(Cl)cc(Cl)cc1Cl [US20240150287, Example 17] | 64.2 nM
19 | COC(=O)[C@H](Cc1ccc(N2C(=O)C3(CC3)c3cccnc32)cc1)NC(c1ccccc1)(c1ccccc1)c1ccccc1 [US20240150287, Example 16] | 0.75 nM
20 | COC(=O)[C@H](Cc1ccc(-n2c(=O)n(C)c3cccc(F)c32)cc1)NC(c1ccccc1)(c1ccccc1)c1ccccc1 [US20240150287, Example 30] | 1.83 nM
21 | COC(=O)[C@H](Cc1ccc(-n2c(=O)n(C)c3cccc(Cl)c32)cc1)NC(=O)c1c(Cl)cc(Cl)cc1Cl [US20240150287, Example 38] | 27.9 nM

Next, values leading:

Row | IC50 | SMILES
22 | 2.54 nM and 8.02 nM | COC(=O)[C@H](Cc1ccc(N2C(=O)C3(CC3)c3ccc(F)cc32)cc1)NC(c1ccccc1)(c1ccccc1)c1ccccc1 [US20240150287, Example 4]
23 | 17.6 nM | COC(=O)[C@H](Cc1ccc(N2C(=O)C3(CC3)c3cc(F)c(Cl)cc32)cc1)NC(c1ccccc1)(c1ccccc1)c1ccccc1 [US20240150287, Example 8]
24 | 14.3 nM | COC(=O)[C@H](Cc1ccc(N2C(=O)C3(CC3)c3cc(F)c(F)cc32)cc1)NC(c1ccccc1)(c1ccccc1)c1ccccc1 [US20240150287, Example 1]
25 | 5.62 nM | COC(=O)[C@H](Cc1ccc(N2C(=O)C3(CC3)c3ccc(F)c(F)c32)cc1)NC(c1ccccc1)(c1ccccc1)c1ccccc1 [US20240150287, Example 15]
26 | 2.57 nM | COC(=O)[C@H](Cc1ccc(N2C(=O)C3(CC3)c3cccc(Cl)c32)cc1)NC(c1ccccc1)(c1ccccc1)c1ccccc1 [US20240150287, Example 2]
27 | 95.5 nM | COC(=O)[C@H](Cc1ccc(N2C(=O)C3(CC3)c3cc(F)ccc32)cc1)NC(c1ccccc1)(c1ccccc1)c1ccccc1 [US20240150287, Example 9]
28 | 4.15 nM | COC(=O)[C@H](Cc1ccc(N2C(=O)C3(CC3)c3cc(N(C)C)ccc32)cc1)NC(c1ccccc1)(c1ccccc1)c1ccccc1 [US20240150287, Example 12]
29 | 5.81 nM | COC(=O)[C@H](Cc1ccc(N2C(=O)C3(CC3)c3ccccc32)cc1)NC(c1ccccc1)(c1ccccc1)c1ccccc1 [US20240150287, Example 6]
30 | 5.48 nM | COC(=O)[C@H](Cc1ccc(N2C(=O)C3(CC3)c3cccc(OC)c32)cc1)NC(c1ccccc1)(c1ccccc1)c1ccccc1 [US20240150287, Example 3]
31 | 6.21 nM | COC(=O)[C@H](Cc1ccc(N2C(=O)C3(CC3)c3cccc(F)c32)cc1)NC(c1ccccc1)(c1ccccc1)c1ccccc1 [US20240150287, Example 5]
